By Ki is commonly meant a dissociation constant, usually derived from enzyme kinetics or from competition with a known ligand. By EC50 is commonly meant the concentration needed to bring the measured effect to its halfway point.

Where two headings read alike, the source gives them in different places.

In data set [1] the target is T1, human GR (glucocorticoid receptor) (Homo sapiens, UniProt P04150).
T1 construct: expressed in transfected cells; host or cells: HEK293
T1 sequence (P04150 1-777): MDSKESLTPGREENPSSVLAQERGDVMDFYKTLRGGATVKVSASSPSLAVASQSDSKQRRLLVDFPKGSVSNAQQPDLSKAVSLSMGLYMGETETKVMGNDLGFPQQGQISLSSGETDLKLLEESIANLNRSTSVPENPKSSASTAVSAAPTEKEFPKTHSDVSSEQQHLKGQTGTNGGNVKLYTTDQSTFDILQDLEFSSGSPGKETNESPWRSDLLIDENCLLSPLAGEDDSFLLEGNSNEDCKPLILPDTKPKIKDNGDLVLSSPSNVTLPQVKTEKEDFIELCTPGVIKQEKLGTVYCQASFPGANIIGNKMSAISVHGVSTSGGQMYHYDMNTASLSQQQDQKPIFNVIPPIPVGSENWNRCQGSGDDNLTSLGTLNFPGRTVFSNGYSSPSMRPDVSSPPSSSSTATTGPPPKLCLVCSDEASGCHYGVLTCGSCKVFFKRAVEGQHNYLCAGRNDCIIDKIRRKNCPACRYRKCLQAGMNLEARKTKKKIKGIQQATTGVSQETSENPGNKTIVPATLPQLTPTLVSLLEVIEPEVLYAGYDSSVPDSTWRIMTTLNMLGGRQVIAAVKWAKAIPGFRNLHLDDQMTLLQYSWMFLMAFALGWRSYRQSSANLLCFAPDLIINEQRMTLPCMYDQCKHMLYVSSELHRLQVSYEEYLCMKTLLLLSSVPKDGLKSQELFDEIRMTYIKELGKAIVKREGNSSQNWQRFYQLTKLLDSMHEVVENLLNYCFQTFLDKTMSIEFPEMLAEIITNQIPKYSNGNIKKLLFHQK
Description: Steroid hormone nuclear receptor binding assay, GR.

Data set [2] relates to HDL cholesterol in Cynomolgus monkeys. The following applies: transdermal delivery.
Data set [3] deals with T2, human AR (androgen receptor) (Homo sapiens, UniProt P10275).
T2 construct: expressed in transfected cells; host or cells: HEK293
T2 sequence (P10275 1-920): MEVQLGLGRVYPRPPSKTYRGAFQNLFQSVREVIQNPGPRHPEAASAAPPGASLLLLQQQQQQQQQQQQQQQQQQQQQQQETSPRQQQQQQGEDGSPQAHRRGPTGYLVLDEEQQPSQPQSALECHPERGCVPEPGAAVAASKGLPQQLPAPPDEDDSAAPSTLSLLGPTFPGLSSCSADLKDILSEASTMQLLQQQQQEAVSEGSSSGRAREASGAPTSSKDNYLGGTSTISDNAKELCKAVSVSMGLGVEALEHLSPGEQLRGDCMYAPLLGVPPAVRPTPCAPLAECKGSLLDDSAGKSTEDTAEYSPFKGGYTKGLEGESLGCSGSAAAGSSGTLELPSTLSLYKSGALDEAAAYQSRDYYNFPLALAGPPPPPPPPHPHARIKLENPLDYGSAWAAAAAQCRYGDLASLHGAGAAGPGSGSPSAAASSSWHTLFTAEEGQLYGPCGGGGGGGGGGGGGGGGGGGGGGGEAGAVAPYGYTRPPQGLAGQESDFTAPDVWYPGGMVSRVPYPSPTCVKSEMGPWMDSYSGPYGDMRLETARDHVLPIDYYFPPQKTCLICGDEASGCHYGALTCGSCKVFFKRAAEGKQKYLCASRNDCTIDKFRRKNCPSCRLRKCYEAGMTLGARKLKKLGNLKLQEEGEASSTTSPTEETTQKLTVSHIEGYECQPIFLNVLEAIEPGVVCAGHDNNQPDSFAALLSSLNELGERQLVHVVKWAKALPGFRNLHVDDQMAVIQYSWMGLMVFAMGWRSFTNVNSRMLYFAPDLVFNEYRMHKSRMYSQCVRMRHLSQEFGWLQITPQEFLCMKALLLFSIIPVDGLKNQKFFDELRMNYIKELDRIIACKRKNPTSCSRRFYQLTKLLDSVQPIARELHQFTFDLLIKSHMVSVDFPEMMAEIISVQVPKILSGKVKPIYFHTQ
Description: Steroid hormone nuclear receptor binding assay, AR. The settings on record: HEK293 lysate, [3H]-methyltrienolone.

The target in data set [4] is T3, human MR (mineralocorticoid receptor) (Homo sapiens, UniProt P08235).
T3 construct: expressed in transfected cells; host or cells: HEK293
T3 sequence (P08235 1-984): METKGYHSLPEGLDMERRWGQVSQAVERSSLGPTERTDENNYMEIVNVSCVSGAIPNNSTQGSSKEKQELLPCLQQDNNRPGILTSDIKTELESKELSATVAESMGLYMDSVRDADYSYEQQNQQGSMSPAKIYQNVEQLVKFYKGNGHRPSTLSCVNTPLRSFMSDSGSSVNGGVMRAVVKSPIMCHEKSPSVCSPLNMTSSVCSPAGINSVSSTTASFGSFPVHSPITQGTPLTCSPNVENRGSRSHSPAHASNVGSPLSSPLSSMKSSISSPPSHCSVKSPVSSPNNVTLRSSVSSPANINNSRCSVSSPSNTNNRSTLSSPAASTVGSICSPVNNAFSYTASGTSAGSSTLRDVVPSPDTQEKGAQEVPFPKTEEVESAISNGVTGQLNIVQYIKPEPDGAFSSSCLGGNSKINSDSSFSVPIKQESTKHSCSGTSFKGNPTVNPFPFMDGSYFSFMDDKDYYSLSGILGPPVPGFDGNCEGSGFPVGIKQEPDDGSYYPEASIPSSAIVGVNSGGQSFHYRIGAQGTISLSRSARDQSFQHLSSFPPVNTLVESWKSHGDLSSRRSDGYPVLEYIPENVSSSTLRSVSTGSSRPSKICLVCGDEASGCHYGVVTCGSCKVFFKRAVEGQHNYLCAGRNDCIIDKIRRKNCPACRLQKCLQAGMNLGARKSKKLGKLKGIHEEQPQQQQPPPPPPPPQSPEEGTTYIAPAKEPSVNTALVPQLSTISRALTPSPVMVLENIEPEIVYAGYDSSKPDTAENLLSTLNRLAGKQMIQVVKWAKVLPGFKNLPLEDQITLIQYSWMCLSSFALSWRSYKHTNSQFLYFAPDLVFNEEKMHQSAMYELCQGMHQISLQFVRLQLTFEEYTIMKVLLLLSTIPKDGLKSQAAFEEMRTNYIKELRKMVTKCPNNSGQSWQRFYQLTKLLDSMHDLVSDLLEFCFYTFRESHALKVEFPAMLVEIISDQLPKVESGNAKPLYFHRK
Description: Steroid hormone nuclear receptor binding assay, MR. The settings on record: HEK293 lysate, [3H]-aldosterone.

Data set [5] addresses T4, human androgen receptor (AR) (Homo sapiens, UniProt P10275).
T4 construct: expressed in transfected cells; host or cells: mouse myoblast C2C12 cells
T4 sequence (P10275 1-920): T2 sequence (P10275 1-920)
Briefly: C2C12 AR/ARE reporter assay. The data set is classed as cell-based. The settings on record: mouse myoblast C2C12 cells, luciferase reporter, 24 h.

Data set [6] addresses T5, human PR (progesterone receptor) (Homo sapiens, UniProt P06401).
T5 construct: expressed in transfected cells; host or cells: HEK293
T5 sequence (P06401 1-933): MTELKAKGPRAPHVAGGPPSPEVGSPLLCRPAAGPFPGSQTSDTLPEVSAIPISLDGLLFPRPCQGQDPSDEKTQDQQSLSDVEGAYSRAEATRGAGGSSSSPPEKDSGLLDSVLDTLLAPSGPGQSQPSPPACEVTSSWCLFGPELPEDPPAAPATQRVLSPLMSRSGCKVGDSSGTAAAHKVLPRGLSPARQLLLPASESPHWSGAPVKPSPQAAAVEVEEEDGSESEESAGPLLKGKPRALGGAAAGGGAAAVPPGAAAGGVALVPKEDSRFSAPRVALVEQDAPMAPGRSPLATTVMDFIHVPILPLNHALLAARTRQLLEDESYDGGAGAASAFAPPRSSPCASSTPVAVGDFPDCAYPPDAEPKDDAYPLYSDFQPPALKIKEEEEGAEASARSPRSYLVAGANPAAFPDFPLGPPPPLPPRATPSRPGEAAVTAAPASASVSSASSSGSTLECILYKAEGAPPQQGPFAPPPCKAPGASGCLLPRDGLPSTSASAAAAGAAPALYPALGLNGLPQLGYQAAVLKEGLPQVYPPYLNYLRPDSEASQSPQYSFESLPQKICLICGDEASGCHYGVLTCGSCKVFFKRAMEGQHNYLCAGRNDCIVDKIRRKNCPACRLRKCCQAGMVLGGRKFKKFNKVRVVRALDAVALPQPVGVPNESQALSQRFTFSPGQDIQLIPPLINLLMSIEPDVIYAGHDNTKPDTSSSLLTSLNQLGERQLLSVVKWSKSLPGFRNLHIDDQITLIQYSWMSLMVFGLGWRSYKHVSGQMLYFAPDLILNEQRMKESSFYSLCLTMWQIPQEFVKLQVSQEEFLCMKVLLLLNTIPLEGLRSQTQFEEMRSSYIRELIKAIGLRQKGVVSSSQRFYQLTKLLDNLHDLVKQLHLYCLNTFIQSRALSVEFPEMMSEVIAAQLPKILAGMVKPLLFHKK
Description: Steroid hormone nuclear receptor binding assay, PR. The settings on record: HEK293 lysate, [3H]-methyltrienolone.

[7] abbreviates: HEK293 lysate, [3H]-dexamethasone, read-out: GR (Ki nM).

For `Cc1c(N[C@@H]2CCC[C@@]2(C)O)ccc(C#N)c1Cl` (single isomer, unassigned) [Example 1], the inhibition constant Ki in data set [1] is > 6020 nM. For the same compound, in data set [2], the “effect on HDL” value is “minimal effect”.

Take `Cc1c(N[C@H]2CC[C@H](O)[C@]2(C)O)ccc(C#N)c1Cl` (single isomer, unassigned) [Example 20]: the inhibition constant (Ki) in data set [1] (setting [7]) was > 5730 nM; in data set [3], 38.1 nM; in data set [4] it was > 7150 nM; in data set [6], > 7960 nM. Also, the EC50 in data set [5] was determined as 0.146 µM.

`CCc1c(NC2CCOCC2(C)O)ccc(C#N)c1Cl` (single isomer, unassigned; diastereomer 2) [Example 32, 2-Chloro-3-ethyl-4-[[3-hydroxy-3-methyl-tetrahydropyran-4-yl]amino]benzonitrile, Diastereomer 2]: the Ki in data set [1] (setting [7]) is > 5820 nM; in data set [3], 162 nM; in data set [4], 3960 nM; in data set [6] it was 4290 nM. In data set [5], this compound had a half-maximal effective concentration (EC50) of 0.274 µM.
